Measurements published in patent publication US20260250300A1, “POLYMORPHS AND THEIR USE FOR TREATING CANCER” (Cairn Therapeutics, Inc., priority 2023, published 2026).

What was measured:
Type in all cases: physicochemical
[1] = Relative stability of Form A hydrate and Form C anhydrate in ethanol and ethanol/water slurries
Procedure: The relative stability of the crystalline Form A hydrate and Compound 1 crystalline Form C anhydrate was evaluated in ethanol and ethanol/water between ambient temperature and 50° C.
Crystalline Form C anhydrate was prepared by slurrying crystalline Form A hydrate in absolute ethanol at 40° C. for about two days (Sample 1, FIG. 25A). Attempts to prepare amorphous material by cold precipitation and lyophilization were carried out but were unsuccessful. […] The lyophilization experiment produced material having an XRPD pattern consistent with crystalline Form E DMSO solvate (FIG. 25C).
To prepare the crystalline Form C anhydrate, 249 mg of Compound 1 crystalline Form A hydrate was placed in an 8 mL glass vial followed by 2.0 mL of absolute ethanol. The resulting slurry was stirred magnetically at 40° C. for about two days. The slurry was vacuum filtered and the solids allowed to air dry for 15 minutes at room temperature.

[2] = Stability study of crystalline Forms A and C at 25° C./60% RH and 40° C./75% RH, analysed by XRPD; conditions: after 4 weeks
Procedure: A sample of each of crystalline Forms A and C was placed in an uncapped vial and exposed to 25° C./60% RH and 40° C./75% relative humidity (“RH”) for 4 weeks (Table 24). The resultant samples were analyzed by XRPD at T=1, 2, and 4 weeks to evaluate their physical stability.
(§1) A Rigaku SmartLab X-Ray Diffractometer was configured in Bragg-Brentano reflection geometry equipped with a beam stop and knife edge to reduce incident beam and air scatter. No filter was used for crystalline Form C anhydrate crystalline Form E DMSO solvate. Spinning rate of 17 rpm was used for crystalline Form C anhydrate analysis. Other parameters are the same as described in Table 27.

[3] = Slurry experiments using Compound 1 crystalline Form A hydrate in methanol and methanol:water, XRPD; conditions: two days, 30 mg
Procedure: The nature of this peak is unknown. […]
as §1

[4] = Conversion rate of crystalline Form A hydrate to crystalline Form C anhydrate in ethanol at about 50° C., XRPD; conditions: slurry in absolute ethanol at about 50° C., 1 hour
Procedure: The conversion rate of the crystalline Form A hydrate to the crystalline Form C anhydrate in ethanol at about 50° C. was investigated (Table 25). Slurries were prepared using Compound 1 crystalline Form A hydrate as starting material. […] Each slurry was stirred magnetically at about 50° C. and subsequently vacuum filtered to collect the solid at given times. The resulting solids were analyzed by XRPD immediately. […] A Rigaku SmartLab X-Ray Diffractometer was configured in Bragg-Brentano reflection geometry equipped with a beam stop and knife edge to reduce incident beam and air scatter. […] Spinning rate of 17 rpm was used for crystalline Form C anhydrate analysis. Other parameters are the same as described in Table 27.

[5] = Dynamic vapor sorption (DVS) analysis; conditions: 25° C., 5 to 95% RH
Procedure: Different polymorphic forms of a compound may have different hygroscopic properties. […] A sample weight of less than 10 mg was loaded into a metal-coated quartz pan for analysis. The sample was analyzed at 25° C. after equilibrated to 5% relative humidity (RH) in 10% RH steps from 5 to 95% RH (adsorption cycle) and from 95 to 5% RH (desorption cycle). The movement from one step to the next occurred either after satisfying the equilibrium criterion of 0.01% weight change in 5 minutes or, if the equilibrium criterion was not met, after 90 minutes. The percent weight change values are calculated using Microsoft Excel®. The DVS analysis was carried out using a TA Instruments Q5000 Dynamic Vapor Sorption analyzer. […]

[6] = listed as Compound 1 crystalline Form A hydrate

Compound | form conversion ([1]; absolute ethanol, about 40° C., about two days) | relative stability (form conversion) ([1]; ethanol and ethanol/water, between ambient temperature and 50° C.) | form conversion ([1]; ethanol at about 50° C., slurrying for four days) | crystalline Form conversion (physical stability) [2] | XRPD Result ([3]; 95:5 MeOH:water) | XRPD Result ([3]; MeOH) | XRPD Result [4] | hygroscopicity (DVS) ([5]; listed as Compound 1 Crystalline Form A hydrate) | DVS weight gain [5, 6] | hygroscopicity (DVS) [5, 6] | DVS weight gain ([5]; listed as Compound 1 Crystalline Form C anhydrate) | DVS weight gain ([5]; listed as Compound 1 crystalline Form C anhydrate)
CN1Oc2cc3c(c4cccc(c24)C1=O)[C@H](CCl)CN3C(=O)c1cc2cc(NC(=O)c3cc4ccccc4[nH]3)ccc2[nH]1 [Crystalline Form A hydrate, (S)—N-(2-(10-(Chloromethyl)-5-methyl-4-oxo-5,8,9,10-tetrahydro-4H-pyrrolo[3′,2′: 5,6]naphtho[1,8-de][1,2]oxazine-8-carbonyl)-1H-indol-5-yl)-1H-indole-2-carboxamide] | converts to the crystalline Form C anhydrate | converted to the crystalline Form C anhydrate except when the water activity of the solvent was greater than 0.31 | converted to crystalline Form C anhydrate | No crystalline Form conversion was observed | remained that of the crystalline Form A hydrate | remained that of the crystalline Form A hydrate | converted to crystalline Form C anhydrate completely | Slightly hygroscopic | less than 0.5% | slightly hygroscopic | – | –
CN1Oc2cc3c(c4cccc(c24)C1=O)[C@H](CCl)CN3C(=O)c1cc2cc(NC(=O)c3cc4ccccc4[nH]3)ccc2[nH]1 [Crystalline Form C anhydrate, (S)—N-(2-(10-(Chloromethyl)-5-methyl-4-oxo-5,8,9,10-tetrahydro-4H-pyrrolo[3′,2′: 5,6]naphtho[1,8-de][1,2]oxazine-8-carbonyl)-1H-indol-5-yl)-1H-indole-2-carboxamide] | – | – | – | – | – | – | – | – | – | – | Weight gain of 0.35% at 5-95% RH | 0.35%
